Values joined by “and” are separate entries in the source; they are usually repeats but may differ in a detail not shown here. Equal values may be shown once.
Experiment: UV absorption (ethanol)
Type: physicochemical
Settings: UV spectrum in ethanol; for εmax: at the λmax of the same cell

## C[Si](C)(C)CCCOc1ccc(-c2nc3ccccc3[nH]2)c(O)c1 [Example 3]
  λmax: 333 nm and 318 nm
  εmax: 22,200 and 24,250

## C=C(C)Cc1cc(OC)cc(-c2nc3ccccc3[nH]2)c1O [2-(1H-benzimidazol-2-yl)-4-methoxy-6-(2-methyl-allyl)-phenol]
  λmax: 302 nm and 343 nm
  εmax: 18,500 and 16,200

## C=C(C)Cc1cc(C)cc(-c2nc3ccccc3o2)c1O [2-benzoxazol-2-yl-4-methyl-6-(2-methyl-allyl)-phenol]
  λmax: 299 nm and 333 nm
  εmax: 20,130 and 14,180
